pIC50: −log10 of the molar value. Where two headings read alike, the source gives them in different places. Starred links: 1 amine or outer side, 2 acyl side, 3 side chain; linkers in the order of their positions; H or OH if unused. Positions of bridges follow the written chain, without caps; N, C: chain ends. Non-standard residues stand in square brackets, D forms with d. Residues, ends and D or L forms follow the SMILES beside them. ξ: configuration not given here. X9 = O=C([C@@H]1C[C@@H](Oc2nc3ccccc3cc2Br)CN1[*:1])[*:2]; Phe(4-F) = N[C@@H](Cc1ccc(F)cc1)C(=O)O; Pro(5S-Me) = C[C@H]1CC[C@@H](C(=O)O)N1; Bta = N[C@@H](Cc1csc2ccccc12)C(=O)O; Hyp = O=C(O)[C@@H]1C[C@@H](O)CN1; NMeF = CN[C@@H](Cc1ccccc1)C(=O)O; NMeNle = CCCC[C@H](NC)C(=O)O; NMeA = CN[C@@H](C)C(=O)O; Dab = NCC[C@H](N)C(=O)O; Dap = NC[C@H](N)C(=O)O; ξOrn = NCCCC(N)C(=O)O; ξP = O=C(O)C1CCCN1; ξC = NC(CS)C(=O)O; Sar = CNCC(=O)O

What is called pIC50 is −log10 of the IC50, conventionally taken in molar units.

Test [1] deals with T1, LK35.2-hPD-L1 cells / PE-labeled PD-1-Ig (Homo sapiens, UniProt Q9NZQ7).
T1 construct: expressed in transfected cells; host or cells: LK35.2 mouse B cell line
The test can be described thus: LK35.2-hPD-L1 cell binding high-content screening assay. It counts as cell-based. The method, boiled down:
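Compound effect on PD-1/PD-L1 binding is measured by imaging cell-associated phycoerythrin signal. Human PD-1-Ig (PE on Ig tag, 1 nM final) is applied with compound to a murine B cell line overexpressing human PD-L1 for 1 h at 37 °C in serum-containing RPMI.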

Another test concerns the target T2, Human PD-L1/PD-1 (Homo sapiens, UniProt Q9NZQ7).
T2 construct: made in house; host or cells: HEK293T
As to the kind of experiment: HTRF PD-1-Ig/PD-L1-His binding assay (human PD-L1). The method, boiled down:
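Soluble Fc-fused PD-1 and His-tagged PD-L1 (truncated before the transmembrane region) were combined in dPBS with 0.1% (w/v) BSA and 0.05% (v/v) Tween-20. Binding was read by HTRF using europium cryptate anti-Ig antibody (1 nM final) and APC anti-His antibody (20 nM final).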
A general note: TR-FRET usually uses a lanthanide donor and a delayed reading to cut background.

Where [2] appears, read: cell binding assay, cell line not given, cluster symbol, read-out: CBA IC50 cluster.
The mark [3] stands for this setting: cluster symbol, read-out: HTRF IC50 cluster.
Setting [4] is: cluster symbol, cell line of CBA not given (LK35.2-hPD-L1 or 293T-hPD-L1), read-out: CBA IC50 cluster.

T2 sequence (Q9NZQ7 with tags, fused parts or gaps): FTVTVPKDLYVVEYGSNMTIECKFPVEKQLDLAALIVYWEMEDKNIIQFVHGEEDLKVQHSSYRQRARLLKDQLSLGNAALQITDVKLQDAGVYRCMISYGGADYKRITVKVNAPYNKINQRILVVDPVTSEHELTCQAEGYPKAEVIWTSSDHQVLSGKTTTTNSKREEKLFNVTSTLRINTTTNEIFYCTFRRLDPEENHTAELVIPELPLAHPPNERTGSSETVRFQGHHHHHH
T1 sequence (Q9NZQ7 19-290): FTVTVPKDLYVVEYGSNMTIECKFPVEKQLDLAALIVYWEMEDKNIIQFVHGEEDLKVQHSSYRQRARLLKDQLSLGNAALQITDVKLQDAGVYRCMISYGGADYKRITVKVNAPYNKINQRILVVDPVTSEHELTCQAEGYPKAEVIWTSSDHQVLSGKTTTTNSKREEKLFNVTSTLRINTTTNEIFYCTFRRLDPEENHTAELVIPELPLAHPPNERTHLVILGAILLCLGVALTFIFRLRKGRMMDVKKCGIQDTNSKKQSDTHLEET

In the case of `CCCC[C@H]1C(=O)N(C)[C@@H](CCCC)C(=O)N[C@@H](CCCNC(=N)N)C(=O)N[C@H](C(=O)NCC(N)=O)CSCC(=O)N[C@@H](Cc2ccc(O)cc2)C(=O)N(C)[C@@H](C)C(=O)N[C@@H](CC(N)=O)C(=O)N2CCC[C@H]2C(=O)N[C@@H](CN)C(=O)N[C@@H](CC(C)C)C(=O)N2C[C@H](O)C[C@H]2C(=O)N[C@@H](Cc2c[nH]c3ccccc23)C(=O)N[C@@H](CC(N)=O)C(=O)N[C@@H](Cc2c[nH]c3ccccc23)C(=O)N1C` [Example 6033] ({CH2CO}-Y[NMeA]NP[Dap]L[Hyp]WNW[NMeNle][NMeNle]RCG-NH2; thioether N-14), the values for the pIC50 (in test [1] (setting [2]); at Human PD-L1/PD-1 (setting [3])) were 8.33 to 9.80 and 8.17 to 9.41, respectively.
On the same counts, the results for `CCCC[C@H]1C(=O)N(C)CC(=O)N[C@@H](CC(=O)O)C(=O)N[C@@H](C(C)C)C(=O)N(C)[C@@H](Cc2ccccc2)C(=O)N[C@@H](Cc2ccc(O)cc2)C(=O)N(C)CC(=O)N[C@@H](Cc2c[nH]c3ccccc23)C(=O)N[C@@H](Cc2ccc(O)cc2)C(=O)N[C@@H](CC(C)C)C(=O)N[C@H](C(=O)NCC(N)=O)CSCC(=O)N[C@@H](Cc2ccc(F)cc2)C(=O)N(C)[C@@H](Cc2ccccc2)C(=O)N1C` [Example 3520] ({CH2CO}-[Phe(4-F)][NMeF][NMeNle][Sar]DV[NMeF]Y[Sar]WYLCG-NH2; thioether N-13) are 8.33 to 9.80 and 7.52 to 8.17.
In the case of `CCCC[C@H]1C(=O)N(C)[C@@H](CCCC)C(=O)N[C@@H](CN)C(=O)N[C@H](C(=O)NCC(N)=O)CSCC(=O)N[C@@H](Cc2ccc(O)cc2)C(=O)N2CCC[C@H]2C(=O)N[C@@H](CC(=O)O)C(=O)N2CCC[C@H]2C(=O)N[C@@H](CN)C(=O)N[C@@H](CC(=O)O)C(=O)N2C[C@H](O)C[C@H]2C(=O)N[C@@H](Cc2c[nH]c3ccccc23)C(=O)N[C@@H](CCN)C(=O)N[C@@H](Cc2csc3ccccc23)C(=O)N1C` [Example 1222] ({CH2CO}-YPDP[Dap]D[Hyp]W[Dab][Bta][NMeNle][NMeNle][Dap]CG-NH2; thioether N-14), the pIC50 is below 7.13 in test [1] (setting [4]) and 7.52 to 8.17 on Human PD-L1/PD-1 (setting [3]).
As for `CCCC[C@H]1C(=O)N(C)[C@@H](CCCC)C(=O)N[C@@H](CC(C)C)C(=O)N[C@H](C(=O)NCC(N)=O)CSCC(=O)N[C@@H](Cc2ccc(O)cc2)C(=O)N(C)[C@@H](C)C(=O)N[C@@H](CC(N)=O)C(=O)N2CCC[C@H]2C(=O)N[C@@H](CN)C(=O)N[C@@H](CC(C)C)C(=O)N2C[C@H](Oc3nc4ccccc4cc3Br)C[C@H]2C(=O)N[C@@H](Cc2c[nH]c3ccccc23)C(=O)N[C@@H](CCN)C(=O)N[C@@H](Cc2c[nH]c3ccccc23)C(=O)N1C` [Example 6049] ({CH2CO}-Y[NMeA]NP[Dap]L[X9]W[Dab]W[NMeNle][NMeNle]LCG-NH2; thioether N-14), the negative-log IC50 (pIC50) in test [1] (setting [2]) is 7.14 to 8.32; on Human PD-L1/PD-1 (setting [3]) it was 8.17 to 9.41.
As for `CCCC[C@H]1C(=O)N(C)[C@@H](CCCC)C(=O)N[C@@H](CCCNC(=N)N)C(=O)NC(C(=O)NCC(N)=O)CSCC(=O)N[C@@H](Cc2ccc(O)cc2)C(=O)N(C)[C@@H](C)C(=O)N[C@@H](CC(N)=O)C(=O)N2[C@@H](C)CC[C@H]2C(=O)N[C@@H](Cc2cnc[nH]2)C(=O)N[C@@H](CC(C)C)C(=O)N2CCC[C@H]2C(=O)N[C@@H](Cc2c[nH]c3ccccc23)C(=O)N[C@@H](CO)C(=O)N[C@@H](Cc2csc3ccccc23)C(=O)N1C` (stereo partly drawn) [Example 9016] ({CH2CO}-Y[NMeA]N[Pro(5S-Me)]HLPWS[Bta][NMeNle][NMeNle]R[ξC]G-NH2; thioether N-14), the pIC50 is 8.48 in test [1] (cell binding assay, cell line not given, numeric value, read-out: CBA IC50 values) and 8.23 at Human PD-L1/PD-1 (numeric value, read-out: HTRF IC50 values).
Consider `CCCC[C@H]1C(=O)N2CCC[C@@H]2C(=O)N2CCC[C@H]2C(=O)N[C@@H](C(C)C)C(=O)N(C)[C@@H](Cc2ccccc2)C(=O)N[C@@H](Cc2ccc(O)cc2)C(=O)N(C)CC(=O)N[C@@H](Cc2c[nH]c3ccccc23)C(=O)N[C@@H](Cc2ccc(O)cc2)C(=O)N[C@@H](CC(C)C)C(=O)N[C@H](C(=O)NCC(N)=O)CSCC(=O)N[C@@H](Cc2ccccc2)C(=O)N(C)[C@@H](Cc2ccccc2)C(=O)N1C` [Example 3173] (HELM PEPTIDE1{[O=C(C[*:3])[*:2]].F.[meF].[CCCC[C@@H](C(=O)[*:2])N(C)[*:1]].[dP].P.V.[meF].Y.[Sar].W.Y.L.C.G.[am]}$PEPTIDE1,PEPTIDE1,1:R3-14:R3$$$V2.0), for which the figures for the negative logarithm of the IC50 (pIC50) (in test [1] (setting [4]); at Human PD-L1/PD-1 (setting [3])) were 7.14 to 8.32 and below 7.52, respectively.
Regarding `CCCC[C@H]1C(=O)N(C)[C@@H](CCCC)C(=O)N[C@@H](CCCNC(=N)N)C(=O)N[C@H](C(=O)NCC(=O)NCC(N)=O)CSCC(=O)N[C@@H](Cc2ccccc2)C(=O)N(C)[C@@H](C)C(=O)N[C@@H](CC(N)=O)C(=O)N2CCC[C@H]2C(=O)N[C@@H](Cc2cnc[nH]2)C(=O)N[C@@H](CC(C)C)C(=O)N(C)CC(=O)N[C@@H](Cc2c[nH]c3ccccc23)C(=O)N[C@@H](CO)C(=O)N[C@@H](Cc2c[nH]c3ccccc23)C(=O)N1C` [Example 6001] ({CH2CO}-F[NMeA]NPHL[Sar]WSW[NMeNle][NMeNle]RCGG-NH2; thioether N-14), the pIC50 is 7.14 to 8.32 in test [1] (setting [2]) and 7.52 to 8.17 at Human PD-L1/PD-1 (setting [3]).
On the same counts, the results for `CCCC[C@H]1C(=O)N(C)[C@@H](CCSC)C(=O)N[C@@H](C)C(=O)NC(C(=O)NCC(N)=O)CSCC(=O)N[C@@H](Cc2ccc(O)cc2)C(=O)N(C)[C@@H](C)C(=O)N[C@@H](CC(N)=O)C(=O)N2CCC[C@H]2C(=O)N[C@@H](CN)C(=O)N[C@@H](CC(C)C)C(=O)N2C[C@H](O)C[C@H]2C(=O)N[C@@H](Cc2c[nH]c3ccccc23)C(=O)N[C@@H](CO)C(=O)N[C@@H](Cc2c[nH]c3ccccc23)C(=O)N1C` (stereo partly shown) [Example 9087] are 8.33 to 9.80 and 8.17 to 9.41.
`CCCC[C@H]1C(=O)N(C)[C@@H](CCCC)C(=O)N[C@@H](CCCN)C(=O)N[C@H](C(=O)NCC(N)=O)CSCC(=O)N[C@@H](Cc2ccc(O)cc2)C(=O)N2C[C@H](N)C[C@H]2C(=O)N[C@@H](CC(N)=O)C(=O)N2CCC[C@H]2C(=O)N[C@@H](Cc2cnc[nH]2)C(=O)N[C@@H](CC(C)C)C(=O)N2C[C@H](O)C[C@H]2C(=O)N[C@@H](Cc2c[nH]c3ccccc23)C(=O)N[C@@H](CO)C(=O)N[C@@H](Cc2c[nH]c3ccccc23)C(=O)N1C` [Example 1192]: the pIC50 is 7.67 in test [1] (cell line of CBA not given (LK35.2-hPD-L1 or 293T-hPD-L1), read-out: CBA IC50 value) and 8.17 at Human PD-L1/PD-1 (read-out: HTRF IC50 value).
As to `CCCC[C@H]1C(=O)N(C)[C@@H](CCCC)C(=O)NC(CCCN)C(=O)N[C@H](C(=O)NCC(N)=O)CSCC(=O)N[C@@H](Cc2ccc(O)cc2)C(=O)N(C)[C@@H](C)C(=O)N[C@@H](CC(N)=O)C(=O)N2CCCC2C(=O)N[C@@H](Cc2cnc[nH]2)C(=O)N[C@@H](CC(C)C)C(=O)N2CCC[C@H]2C(=O)N[C@@H](Cc2c[nH]c3ccccc23)C(=O)N[C@@H](CO)C(=O)N[C@@H](Cc2csc3ccccc23)C(=O)N1C` (stereo partly shown) [Example 1042] ({CH2CO}-Y[NMeA]N[ξP]HLPWS[Bta][NMeNle][NMeNle][ξOrn]CG-NH2; thioether N-14), the pIC50 in test [1] (setting [4]) was 8.33 to 9.80; on Human PD-L1/PD-1 (setting [3]), 8.17 to 9.41.
For the compound `CCCC[C@H]1C(=O)N[C@@H](CCCNC(=N)N)C(=O)NC(C(=O)NCC(N)=O)CSCC(=O)N[C@@H](Cc2ccc(O)cc2)C(=O)N(C)[C@@H](C)C(=O)N[C@@H](CC(N)=O)C(=O)N2CCC[C@H]2C(=O)N[C@@H](Cc2cnc[nH]2)C(=O)N[C@@H](CC(C)C)C(=O)N2C[C@H](O)C[C@H]2C(=O)N[C@@H](Cc2c[nH]c3ccccc23)C(=O)N[C@@H](CO)C(=O)N[C@@H](Cc2c[nH]c3ccccc23)C(=O)N(C)[C@@H](CCOC)C(=O)N1C` (stereo partly shown) [Example 9004], the negative-log IC50 (pIC50) in test [1] (setting [2]) was 7.14 to 8.32; at Human PD-L1/PD-1 (setting [3]) it was 8.17 to 9.41.

The record behind these values is patent publication US9850283B2, “Macrocyclic inhibitors of the PD-1/PD-L1 and CD80(B7-1)/PD-L1 protein/protein interactions” (BRISTOL-MYERS SQUIBB COMPANY, priority 2013, dated 2017).
